Where “and” joins values, the source holds several entries; their conditions need not be identical. Identical values can stand only once.
Tests used:
[1] = tested on: bacteria which rely on SBLs; settings: with MEM; cited from earlier work
bacterial strain = assay: MIC checkerboard assays, Examples 2 to 30 overall; type: cell-based
Procedure: Thus, in most of the experiments, a Fractional Inhibitory Concentration Index (FICI) could not be calculated, and the conclusion of synergy was made through visual reading of the bacterial growth in the wells in the combination experiment.
(§1) Antimicrobial susceptibility testing (AST) by broth microdilution (MIC determination) was performed according to The European Committee on Antimicrobial Susceptibility Testing (EUCAST) guidelines (see Reading guide for broth microdilution Version 5.0, 2024: https://www.eucast.org).
(§2) Sterile clear round bottom polystyrene (non-treated) 96-well microplates (Corning 3788) were used for making serial two-fold dilutions of the antibiotic and the sBLI in cation-adjusted Mueller Hinton II broth (caMHB; Thermo Scientific, T3462, containing 29.4 μM Zn^2+), across the columns of the microtiter plate (256-0.06 μg/mL; columns 1-12). The checkerboard plates were all made by keeping the sBLI at a fixed ratio relative to antibiotic (absolute concentrations of each, in μg/mL) to all wells containing sample in each plate. Additionally, a set of samples was included in each test plate, where the zinc chelator was added, at various fixed concentrations, of 16 μg/mL, 8 μg/mL and/or 4 μg/mL (as specified in each Example). All sample wells contained growth medium (caMHB), and inoculated bacteria at a final inoculum between 3-7×10^5 CFU/mL. […]

[2] = tested on: Klebsiella pneumoniae ST147; assay: MIC determination, fixed ratio of sBLI to antibiotic (Examples 5-7); type: cell-based; settings: Example 7; with MEM and AVI (fixed ratio); NDM-1 and KPC-2; caMHB, 29.4 μM Zn2+
Procedure: as §1, §2

Compound: CN(C[C@H](O)[C@@H](O)[C@H](O)[C@H](O)CO)C(=O)c1ccc(CN(Cc2ccccn2)Cc2ccccn2)nc1 [zinc chelator]
- effect of combination [1]: no effect
- intrinsic antibiotic effect (bacterial strain): neither the zinc chelator nor the sBLI have intrinsic antibiotic effect
- Synergy with the zinc chelator observed at concentration [2]: 16 µg/mL and 8 µg/mL
